Assay results from patent US20230210825A1, “METHODS AND COMPOSITIONS FOR TREATING SUBJECTS WITH METABOLIC DISORDERS AND CORONAVIRUS INFECTIONS” (CIRIUS THERAPEUTICS, INC., priority 2020, published 2023).

Tests used:
[1] = target: T1, organic anion transporter 3 (OAT3) (Homo sapiens, UniProt Q8TCC7); assay: OAT3 inhibition
T1 sequence (Q8TCC7 1-542): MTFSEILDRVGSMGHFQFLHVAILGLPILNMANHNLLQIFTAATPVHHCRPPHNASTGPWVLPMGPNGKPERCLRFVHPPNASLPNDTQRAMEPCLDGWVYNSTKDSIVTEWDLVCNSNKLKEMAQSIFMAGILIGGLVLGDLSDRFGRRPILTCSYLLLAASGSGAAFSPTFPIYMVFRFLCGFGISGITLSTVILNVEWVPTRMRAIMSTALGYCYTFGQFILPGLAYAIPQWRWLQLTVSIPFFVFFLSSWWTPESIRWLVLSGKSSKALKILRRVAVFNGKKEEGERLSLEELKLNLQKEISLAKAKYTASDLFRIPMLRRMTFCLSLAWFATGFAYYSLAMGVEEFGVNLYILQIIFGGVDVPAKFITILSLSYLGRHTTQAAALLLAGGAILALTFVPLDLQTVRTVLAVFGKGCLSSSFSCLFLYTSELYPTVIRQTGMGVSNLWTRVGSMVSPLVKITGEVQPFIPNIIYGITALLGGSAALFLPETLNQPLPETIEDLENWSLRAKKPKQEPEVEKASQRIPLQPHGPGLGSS

[2] = target: CYP2C8 (Homo sapiens, UniProt P10632)
[3] = target: T2, PPARγ (Homo sapiens, UniProt P37231); assay: Relative binding affinity for PPARγ (FIG. 1); settings: FIG. 1, relative binding affinity
T2 sequence (P37231 1-505): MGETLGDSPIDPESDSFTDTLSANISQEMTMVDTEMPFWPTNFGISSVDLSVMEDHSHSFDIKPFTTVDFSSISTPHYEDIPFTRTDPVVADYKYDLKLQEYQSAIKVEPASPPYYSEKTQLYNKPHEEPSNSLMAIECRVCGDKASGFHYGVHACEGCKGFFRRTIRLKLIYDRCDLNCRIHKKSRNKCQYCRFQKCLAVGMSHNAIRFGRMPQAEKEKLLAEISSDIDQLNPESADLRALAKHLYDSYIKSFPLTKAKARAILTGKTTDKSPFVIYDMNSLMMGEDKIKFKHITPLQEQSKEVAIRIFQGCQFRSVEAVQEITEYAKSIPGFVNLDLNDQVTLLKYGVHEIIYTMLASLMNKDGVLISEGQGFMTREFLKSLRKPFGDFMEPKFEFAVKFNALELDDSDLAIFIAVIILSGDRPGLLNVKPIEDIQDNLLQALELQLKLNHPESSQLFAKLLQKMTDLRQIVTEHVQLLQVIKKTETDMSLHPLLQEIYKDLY

[4] = target: T3, mitochondrial pyruvate carrier (MPC) (Homo sapiens, UniProt O95563+Q9Y5U8); assay: Relative binding affinity for the MPC (FIG. 2)
T3 sequence (Q9Y5U8 1-109): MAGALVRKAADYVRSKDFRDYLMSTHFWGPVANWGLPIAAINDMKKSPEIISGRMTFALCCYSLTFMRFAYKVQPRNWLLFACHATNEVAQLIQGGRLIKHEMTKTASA
T3 sequence (O95563 1-127): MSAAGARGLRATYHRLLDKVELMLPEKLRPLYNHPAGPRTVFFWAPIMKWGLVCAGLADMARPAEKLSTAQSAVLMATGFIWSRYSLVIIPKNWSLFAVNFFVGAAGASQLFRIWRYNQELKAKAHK

[5] = metabolite share of combined exposure after MSDC-0602
[6] = tested on: mouse model of a metabolic disorder; settings: reported earlier; effects require MPC expression in hepatocytes; cited from earlier work
[7] = target: multidrug resistance protein 1 (MDR1) (Homo sapiens, UniProt P08183); assay: MDR1 inhibition
[8] = Earlier phase 2 trials: adiponectin at 28 days; parameters: species or system human; settings: in vivo
[9] = target: T4, breast cancer-related protein (BCRP) (Homo sapiens, UniProt Q9UNQ0); assay: BCRP inhibition; settings: not told
T4 sequence (Q9UNQ0 1-655): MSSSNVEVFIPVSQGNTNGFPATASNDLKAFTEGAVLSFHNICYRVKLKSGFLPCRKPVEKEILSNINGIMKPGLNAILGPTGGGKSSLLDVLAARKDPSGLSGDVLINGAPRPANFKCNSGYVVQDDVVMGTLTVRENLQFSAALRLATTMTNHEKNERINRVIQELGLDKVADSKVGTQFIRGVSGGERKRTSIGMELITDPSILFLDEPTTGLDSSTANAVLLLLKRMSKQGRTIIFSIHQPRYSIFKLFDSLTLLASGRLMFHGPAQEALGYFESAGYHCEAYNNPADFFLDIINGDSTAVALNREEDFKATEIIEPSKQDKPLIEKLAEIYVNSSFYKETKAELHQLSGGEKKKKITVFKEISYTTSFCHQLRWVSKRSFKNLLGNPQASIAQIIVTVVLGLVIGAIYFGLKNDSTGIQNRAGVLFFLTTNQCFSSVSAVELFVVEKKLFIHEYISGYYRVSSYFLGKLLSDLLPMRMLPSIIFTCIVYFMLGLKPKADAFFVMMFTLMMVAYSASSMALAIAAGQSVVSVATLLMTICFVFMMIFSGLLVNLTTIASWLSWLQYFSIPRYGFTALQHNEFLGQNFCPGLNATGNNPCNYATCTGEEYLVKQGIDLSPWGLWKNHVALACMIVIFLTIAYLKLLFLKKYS

Sequence of CYP2C8 (P10632 whole entry): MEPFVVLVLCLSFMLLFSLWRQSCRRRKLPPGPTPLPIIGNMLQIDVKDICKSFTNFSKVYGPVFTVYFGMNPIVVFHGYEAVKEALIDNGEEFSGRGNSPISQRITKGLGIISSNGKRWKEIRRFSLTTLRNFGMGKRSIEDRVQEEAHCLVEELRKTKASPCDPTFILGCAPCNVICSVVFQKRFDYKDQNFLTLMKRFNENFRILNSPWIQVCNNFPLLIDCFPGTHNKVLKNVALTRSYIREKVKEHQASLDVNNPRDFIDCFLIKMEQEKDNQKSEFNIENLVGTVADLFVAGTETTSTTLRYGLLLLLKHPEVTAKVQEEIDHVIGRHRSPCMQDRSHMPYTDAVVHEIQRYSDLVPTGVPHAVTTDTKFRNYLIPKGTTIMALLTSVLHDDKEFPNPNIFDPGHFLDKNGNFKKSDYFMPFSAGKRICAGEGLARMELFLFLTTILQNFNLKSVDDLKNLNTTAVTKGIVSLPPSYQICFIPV

## COc1cccc(C(O)COc2ccc(CC3SC(=O)NC3=O)cc2)c1 (centres unmarked) [MSDC-0597]
[1]
  inhibition of organic anion transporter 3 (OAT3): inhibitors
[2]
  inhibition of CYP2C8: weak inhibitor
[3]
  reduction in binding affinity for PPARγ compared to pioglitazone: more than fifty-fold
[4]
  binding to the MPC: maintain, and in some cases improve, binding to the MPC
[5]
  share of the combined exposure: more than 90%

## COc1cccc(C(=O)COc2ccc(CC3SC(=O)NC3=O)cc2)c1 (centres unmarked) [MSDC-0602]
[6]
  damage caused to the liver: prevents and reverses damage caused to the liver
[1]
  inhibition of organic anion transporter 3 (OAT3): inhibitors
[7]
  inhibition of MDR1: inhibitor
[4]
  binding to the MPC: maintain, and in some cases improve, binding to the MPC
[8]
  increase in adiponectin levels: 146%
[9]
  inhibition of BCRP: inhibitor
